For one assay, the system named is Human betaherpesvirus 5. Kind of assay: Inhibitory activity against human cytomegalo virus (HCMV) using standard plaque reduction assay. The format is functional, organism-based. A general note: Plaques are areas of infected cells; plaque reduction assays count them against a control.
Assay [1] has as its target Protein kinase C (PKC) (Homo sapiens) (UniProt O94806+P41743+P17252+P05129+Q05655+P05771+Q05513+Q02156+P24723+Q15139+Q04759). Kind of assay: Percent inhibition of protein kinase C at 100 uM. The format is protein assay.
Another assay relates to Vero. The assay can be described thus: Compound was evaluated for its cytotoxicity against Vero cell line. The format is functional, Chlorocebus sabaeus.
Another assay has as its target Protein kinase C (PKC). The assay can be described thus: Inhibition of protein kinase C. It counts as protein assay.
For assay [2], the system named is MRC5. Kind of assay: Inhibitory concentration against Xba F HCMV strain of MRC5 cells. It counts as functional, cell-based. The note with it: Homo sapiens.
The test system of assay [3] is MRC5. The assay can be described thus: Inhibitory concentration against AD169 HCMV strain of MRC5 cells. The note with it: Homo sapiens. The format is functional, cell-based.
Assay [4] deals with MRC5. The assay can be described thus: Inhibitory concentration against 2599R HCMV strain of MRC5 cells. The format is functional, cell-based. The note with it: Homo sapiens.
Assay [5] relates to MRC5. The assay can be described thus: Inhibitory concentration against Davis HCMV strain of MRC5 cells. The format is functional, cell-based. The note with it: Homo sapiens.
The test system of assay [6] is MRC5. The assay can be described thus: Inhibitory concentration against Towne HCMV strain of MRC5 cells. The note with it: Homo sapiens. The format is functional, cell-based.
Assay [7] deals with MRC5. The assay can be described thus: Inhibitory concentration against C8805 HCMV strain of MRC5 cells. The settings on record: Homo sapiens. The format is functional, cell-based.
Assay [8] relates to MRC5. Kind of assay: Inhibitory concentration against Davis strain of HCMV in MRC5 cells. It counts as functional, cell-based. The settings on record: Homo sapiens.
Assay [9] relates to MRC5. The assay can be described thus: Inhibitory concentration against AD169 strain of HCMV in MRC5 cells. The note with it: Homo sapiens. The format is functional, cell-based.
Assay [10] relates to MRC5. Kind of assay: Inhibitory concentration against Towne strain of HCMV in MRC5 cells. The format is functional, cell-based. The settings on record: Homo sapiens.
Assay [11] concerns MRC5. The assay can be described thus: Inhibitory concentration against Xba F strain of HCMV in MRC5 cells. The format is functional, cell-based. The note with it: Homo sapiens.
Assay [12] has as its system MRC5. The assay can be described thus: Inhibitory concentration against 2599R strain of HCMV in MRC5 cells. It counts as functional, cell-based. The note with it: Homo sapiens.

SMILES strings stand for the structures.

The results in this text go back to ChEMBL document CHEMBL1133886, “Synthesis of N-alkyl substituted indolocarbazoles as potent inhibitors of human cytomegalovirus replication” (Bioorg Med Chem Lett, 2001).

`Cn1c2ccccc2c2c3c(c4c5ccccc5[nH]c4c21)C(=O)NC3=O`: the IC50 in the assay with Human betaherpesvirus 5 amounted to 60 nM. Besides, the inhibition in assay [1] stood at 47%. In the assay on Vero, this compound came in with a CCID50 above 31 µM.

In the case of `CC(C)Cn1c2ccccc2c2c3c(c4c5ccccc5[nH]c4c21)C(=O)NC3=O`, the IC50 in the assay on Human betaherpesvirus 5 was 30 nM. In assay [1], the inhibition is 71%. The compound also had a CCID50 with Vero below 8 µM.

In the case of `O=C1NC(=O)c2c1c1c3ccccc3[nH]c1c1c2c2ccccc2n1CC(F)(F)F`, the IC50 in the assay with Human betaherpesvirus 5 was determined as 70 nM; at Protein kinase C (PKC), 25000 nM. Also, the CCID50 with Vero is below 8 µM.

Take `CC(C)n1c2ccccc2c2c3c(c4c5ccccc5[nH]c4c21)C(=O)NC3=O`: the IC50 with Human betaherpesvirus 5 is 100 nM; against Protein kinase C (PKC), 50000 nM. This compound showed a CCID50 with Vero of 28 µM.

For `CCCn1c2ccccc2c2c3c(c4c5ccccc5[nH]c4c21)C(=O)NC3=O`, the results for the IC50 in the assay with Human betaherpesvirus 5 and on Protein kinase C (PKC) were 150 nM and 50000 nM, respectively. Also, the CCID50 with Vero is below 8 µM.

As for `O=C1NC(=O)c2c1c1c3ccccc3[nH]c1c1[nH]c3ccccc3c21` [STAUROSPORINE AGLYCON], in the assay with Human betaherpesvirus 5, the IC50 worked out at 200 nM. In [1], this compound came in with an inhibition below 50%. Also, the CCID50 in the assay on Vero is above 125 µM.

Turning to `CCn1c2ccccc2c2c3c(c4c5ccccc5[nH]c4c21)C(=O)NC3=O`, the IC50 came to 19 nM in the assay with Human betaherpesvirus 5; 20 nM with MRC5 [2]; 19 nM in the assay with MRC5 [3]; 130 nM with MRC5 [4]; 10000 nM on Protein kinase C (PKC); 30 nM in the assay with MRC5 [5]. Besides, the IC50 with MRC5 [6] was determined as 90 nM; in the assay with MRC5 [7], 60 nM. In the assay with Vero, this compound registered a CCID50 above 125 µM.

For the compound `Nc1nc2c(ncn2COC(CO)CO)c(=O)[nH]1` [GANCICLOVIR], the IC50 with MRC5 [8] is 1400 nM; in the assay on Human betaherpesvirus 5, 3000 nM; in the assay on MRC5 [9] it was 3000 nM; in the assay with MRC5 [10] it was 1500 nM; in the assay with MRC5 [11], above 10000 nM; with MRC5 [12], 1600 nM. In the assay with Vero, this compound had a CCID50 above 500 µM.

`O=C1NC(=O)c2c1c1c3ccccc3[nH]c1c1c2c2ccccc2n1Cc1ccccc1` showed an inhibition in [1] of 23%. In addition, the CCID50 in the assay on Vero was below 31 µM.

For orientation: IC50 means the concentration that inhibits the measured activity by half. The low end stands for greater potency in that assay, the high end for weaker potency in that assay. Usually inhibition stands for how much of the control response was suppressed. Read a high inhibition as strong suppression.
